Patent publication US8785421B1, “Use of vitamin D in dairy mastitis treatment” (The United States of America as represented by the …, priority 2011, dated 2014)

How the values were obtained:
Pseudomonas = test: Mastitis-infected cow with chronic Pseudomonas infection treated by intramammary infusion; type: in vivo; conditions: 100 ug infusions twice a day in the infected gland; after 2 treatments; from thousands of bacteria per ml; detection limit 100 cfu/ml; FIG. 4
Description: After weeks of various conventional treatment the cow was treated with 25(OH)D3 as described in Example 1, with 100 ug infusions twice a day in the infected gland. The treatment of this animal with 25(OH)D3 caused the bacterial load to go from thousands of bacteria per ml to at or below our detection limit of 100 cfu/ml after 2 treatments (FIG. 4).

Cyp24A1 = Cyp24A1 gene expression in milk cells after intramammary infusion into an infected mammary quarter; type: in vivo; conditions: single 100 μg infusion into infected mammary quarter of two cows; compared to cells obtained prior to infusion
S. uberis = test: Experimental S. uberis intramammary infection (mastitis) treated by intramammary infusion after each milking; type: in vivo, cows; conditions: for reduction in bacterial load: 100 μg in 10-ml FBS after each milking, vs FBS sham control
Description: Seven of the animals were treated after each milking with 100 μg of 25(OH)D3 in 10-ml fetal bovine serum (FBS), the other seven were sham treated with 10-ml FBS only. […] The lower bacterial load in the 25(OH)D3 treated animals and therefore a likely reduction of pyrogens explains the reduction in fever seen in the treated group. The level of bovine serum albumin (BSA) in the milk is used as an indicator of changes in the mammary vascular permeability in the gland and typically increases with an acute infection. […] Fewer bacteria in the treated group (FIG. 1) leads to less tissue damage (FIG. 3) and leads to less pyrogens going systemic (FIG. 2). Also, after the fourth day of the infection two cows (out of 6) in the 25D3 had no infection, whereas, all six were infected at this time point in the control treated group.

C=C1CC[C@H](O)C/C1=C/C=C1\CCC[C@]2(C)[C@@H]([C@H](C)CCCC(C)(C)O)CC[C@@H]12 [25(OH)D3, 25-hydroxy vitamin D3]
bacterial load (Pseudomonas): ≤ 100 cfu/ml
gene expression of Cyp24A1 (Cyp24A1): increased
reduction in bacterial load (S. uberis; day 2 of the experiment): 2-4 log
reduction in bacterial load (S. uberis; days 4 and 5 post infection): 1.5-2 log
cows with no infection (S. uberis; after the fourth day of the infection, all six control cows were infected): two
level of bovine serum albumin (BSA) in the milk (S. uberis; indicator of mammary vascular permeability, treated vs control, FIG. 3): not statistically significant
bacterial counts in infected glands (S. uberis; repeated measures analysis, significant difference (p<0.05) at day 2 AM and day 2 PM, FIG. 1): significantly (p<0.05) reduced
rectal temperatures (S. uberis; treated vs control cows at two time points (p<0.05), FIG. 2): significantly lower
